Key:
MAb-streptavidin = assay: Relative stoichiometry of In-111 DOTA-biotin to I-125 MAb-streptavidin at the tumor target site; type: in vivo; conditions: I-125 MAb-streptavidin and In-111 DOTA-biotin
From the text: Experiments were. also carried out using I-125 labeled MAb-streptavidin conjugate and In-111 labeled DOTA-biotin to assess the relative stoichiometry of those materials at the tumor target site using 16 galactose-biotin as a clearing agent. […] When a similar protocol was employed with the 16 galactose-biotin construct, the ratio of DOTA-biotin to MAb-streptavidin was only 2.65. […] Experiments to assess the nature of this blockade are underway.

[1] = tested on: I-125 NR-LU-10-streptavidin conjugate; assay: In vivo pretargeting-format clearance of I-125 NR-LU-10-streptavidin conjugate from circulation; set-up: species or system mice (BALB/c)
Method: In a third set of experiments conducted in vivo in the pretargeting format (e.g., administration of radiolabeled MAb-streptavidin conjugate followed by administration of clearing agent), the (galactosyl)8 -LC-biotin conjugate was also compared to galactose-HSA-biotin prepared as described above. This comparison was conducted in a Balb/c mouse model and was for the ability to clear an I-125 labeled monoclonal antibody-streptavidin conjugate (1-125 LU-10-streptavidin) from circulation as a function of time. […] Subsequent experiments have further shown that hepatic-directed compounds containing 16 galactose residues provide for even better clearance than those containing 8 galactose residues.
Having shown that precomplexed material could clear rapidly and efficiently from the blood, experiments were conducted to measure the effectiveness of various doses of-the 16 galactose-biotin construct to form rapidly clearing complexes in vivo. Mice received 400 micrograms of I-125 NR-LU-10streptavidin conjugate intravenously, and approximately 22 hours later received the 16 galactose-biotin construct at doses of 100 50, or 10:1 (456, 228 and 45 micrograms, respectively) molar excess to circulating monoclonal antibody-streptavidin conjugate. […] The larger doses may be sufficiently high to achieve competition between complexed and non-complexed 16-galactose-biotin for liver receptors, thereby precluding all but a small initial fraction of the complexed MAb-streptavidin conjugate from clearing via the liver. Following the plateau period, clearing of the conjugate remained slow and was eventually less complete than that achieve with the lower dose (approximately 10% of the conjugate remained in circulation at the higher doses, in comparison to 2% for the lower dose). […] If the 16 galactose-biotin construct is unstable, sufficient biotin may be released at higher doses to that a significant portion of circulating conjugate became blocked thereby and, consequently, was not cleared via hepatic-mediated uptake.

[2] = Non-target organ uptake of Y-90-DOTA-biotin radioactivity in tumored nude mice; type: in vivo; conditions: vs historical controls
Method: (§1) Having shown that effective clearing could be achieved with the appropriate does of 16 galactose-biotin construct, studies were undertaken in tumored nude mice to evaluate the potential blockade of tumor-associated conjugate by the small 16 galactose-biotin. Mice bearing either SW-1222 colon tumor xenografts or SHT-1 small cell lung cancer (SCLC) tumor xenografts were pretargeted with NR-LU-10-streptavidin conjugate and, 22 hours later, received 46 micrograms of 16 galactose-biotin. After 2 hours, Y-90-DOTA-biotin prepared as described above was administered, and its uptake and retention in tumor and non-target tissues was evaluated by sacrifice and tissue counting for radioactivity 2 hours post-administration.
(§2) The historical controls were conducted with a 3 hour time period between clearing agent and radioactivity administration.

[3] = tested on: SHT-1 small cell lung cancer (SCLC) tumor xenografts; assay: Tumor targeting of Y-90-DOTA-biotin after NR-LU-10-streptavidin and 16 galactose-biotin, SHT-1 SCLC xenograft; type: in vivo, nude mice
Method: as §1, §2

[4] = tested on: MAb-streptavidin conjugate; assay: Serum/blood clearance of MAb-streptavidin conjugate with galactose cluster-biotin conjugates (precomplexed ex vivo, or given after the conjugate); type: in vivo, mouse; conditions: precomplexed at 20-fold molar excess; 120 or 12 micrograms i.v.; vs antibody conjugate control; BALB/c female
Method: Some or all of these compounds were assayed for their clearance directing activity in two sets of experiments. The first set of experiments involved ex vivo preparation of a precomplexed monoclonal antibody-streptavidin-biotin-galactose cluster conjugate labeled with I-125, intravenous administration of the conjugate in a mouse model, and measuring serum levels of the conjugate over time. The second set of experiments involved intravenous administration of MAb-streptavidin conjugate followed by administration of biotin-galactose cluster conjugate.
NR-LU-10 antibody (MW 150 kD) was conjugated to streptavidin (MW 66 kD) (as described in Example II above), and radiolabeled with ^125 I/PIP-NHS as described below. The antibody component of the conjugate was radioiodinated using p-aryltin phenylate NHS ester (PIP-NHS) and ^125 I sodium iodide. […]
Experiments were designed and executed to evaluate a 16 galactose cluster-biotin construct without the stabilizing tertiary amine structure of the nitrogen of the amide closest to the biotin, the preparation of such a stabilized construct being described above in Example V. BALB/c female mice (20-25 g) were injected i.v. with 120 micrograms of NR-LU-10-streptavidin conjugate radiolabeled with I-125, and blood was serially collected from n=3 mice. The clearance of the conjugate from the blood was measured of these control mice. […]

[5] = tested on: SW-1222 colon tumor xenografts; assay: Tumor targeting of Y-90-DOTA-biotin after NR-LU-10-streptavidin and 16 galactose-biotin, SW-1222 colon xenograft; type: in vivo, nude mice
Method: as §1, §2

[6] = 46 micrograms, Y-90-DOTA-biotin, vs historical controls with (galactose)35-HSA-(biotin)2
[7] = vs (galactose)35-HSA-(biotin)2 historical controls

Compound	Ratio of DOTA-biotin to MAb-streptavidin at the tumor (MAb-streptavidin)	Efficiency at removing circulating conjugate, lower and higher doses ([1]; 12, 23 and 228 microgram, vs 46 microgram)	Rebound effect, lower doses ([1]; 12 and 23 microgram)	Clearing effectiveness at 46 micrograms vs (galactose)35-HSA-(biotin)2 ([1]; 46 microgram, vs previously optimized dose)	Effectiveness at clearing conjugate, each dose ([1]; 100, 50 or 10:1 molar excess (456, 228 and 45 micrograms), about 22 h after 400 micrograms conjugate)	Optimal clearing dose ([1]; decreasing dose comparison) [microgram]	Conjugate remaining in circulation, higher doses ([1]; higher doses (456 and 228 micrograms; 100:1, 50:1))	Duration of plateau in conjugate clearance ([1]; larger doses (456, 228 micrograms), after administration of 16 galactose-biotin)	Conjugate remaining in circulation, lower dose ([1]; lower dose (45 micrograms; 10:1)) [%]	Clearing of MAb-streptavidin from the circulation, summary ([1]; vascular and extravascular spaces)	Liver uptake ([2]; 2 hours between clearing agent and radioactivity)	Non-target organ uptake except liver ([2]; Y-90 radioactivity)	Tumor targeting, low antigen-expressing SCLC xenograft [3, 6]	Tumor uptake of radioactivity, SHT-1, overall assessment [3, 7]	Blood clearance of precomplexed conjugate [4]	Tumor targeting, high antigen-expressing colon xenograft [5, 6]	Tumor uptake of radioactivity, SW-1222, overall assessment [5, 7]	Ability to clear I-125 LU-10-streptavidin from circulation ([1]; Balb/c mouse, vs galactosylated-HSA-biotin)
CN(CCCCSC1O[C@H](CO)[C@H](O)[C@H](O)[C@H]1O)C(=O)CCCCCN(CCCCCC(=O)N(C)CCCCSC1O[C@H](CO)[C@H](O)[C@H](O)[C@H]1O)C(=O)CCCCCN(CCCCCC(=O)N(CCCCCC(=O)N(C)CCCCSC1O[C@H](CO)[C@H](O)[C@H](O)[C@H]1O)CCCCCC(=O)N(C)CCCCSC1O[C@H](CO)[C@H](O)[C@H](O)[C@H]1O)C(=O)CCCCCN(CCCCCC(=O)N(CCCCCC(=O)N(CCCCCC(=O)N(C)CCCCSC1O[C@H](CO)[C@H](O)[C@H](O)[C@H]1O)CCCCCC(=O)N(C)CCCCSC1O[C@H](CO)[C@H](O)[C@H](O)[C@H]1O)CCCCCC(=O)N(CCCCCC(=O)N(C)CCCCSC1O[C@H](CO)[C@H](O)[C@H](O)[C@H]1O)CCCCCC(=O)N(C)CCCCSC1O[C@H](CO)[C@H](O)[C@H](O)[C@H]1O)C(=O)CCCCCN(CCCCCC(=O)N(CCCCCC(=O)N(CCCCCC(=O)N(CCCCCC(=O)N(C)CCCCSC1O[C@H](CO)[C@H](O)[C@H](O)[C@H]1O)CCCCCC(=O)N(C)CCCCSC1O[C@H](CO)[C@H](O)[C@H](O)[C@H]1O)CCCCCC(=O)N(CCCCCC(=O)N(C)CCCCSC1O[C@H](CO)[C@H](O)[C@H](O)[C@H]1O)CCCCCC(=O)N(C)CCCCSC1O[C@H](CO)[C@H](O)[C@H](O)[C@H]1O)CCCCCC(=O)N(CCCCCC(=O)N(CCCCCC(=O)N(C)CCCCSC1O[C@H](CO)[C@H](O)[C@H](O)[C@H]1O)CCCCCC(=O)N(C)CCCCSC1O[C@H](CO)[C@H](O)[C@H](O)[C@H]1O)CCCCCC(=O)N(CCCCCC(=O)N(C)CCCCSC1O[C@H](CO)[C@H](O)[C@H](O)[C@H]1O)CCCCCC(=O)N(C)CCCCSC1O[C@H](CO)[C@H](O)[C@H](O)[C@H]1O)C(=O)CCCCCNC(=O)CCCC[C@@H]1SC[C@@H]2NC(=O)N[C@@H]21 (stereo partly drawn) [16 galactose-biotin]	2.65	less efficient at removing circulating conjugate	significant rebound effect	more effective than the previously optimized dose of (galactose)35 -HSA-(biotin)2	effective at clearing conjugate	46	approximately 10%	about 1 hour	2	effective construct for clearing MAb-streptavidin from the circulation	slightly higher levels	comparable in all tissues except liver	slightly higher	roughly equivalent	extremely rapid clearance from the blood	slightly lower	roughly equivalent	–
CN(CCCCSC1O[C@H](CO)[C@H](O)[C@H](O)[C@H]1O)C(=O)CCCCCN(CCCCCC(=O)N(C)CCCCSC1O[C@H](CO)[C@H](O)[C@H](O)[C@H]1O)C(=O)CCCCCN(CCCCCC(=O)N(CCCCCC(=O)N(C)CCCCSC1O[C@H](CO)[C@H](O)[C@H](O)[C@H]1O)CCCCCC(=O)N(C)CCCCSC1O[C@H](CO)[C@H](O)[C@H](O)[C@H]1O)C(=O)CCCCCN(CCCCCC(=O)N(CCCCCC(=O)N(CCCCCC(=O)N(C)CCCCSC1O[C@H](CO)[C@H](O)[C@H](O)[C@H]1O)CCCCCC(=O)N(C)CCCCSC1O[C@H](CO)[C@H](O)[C@H](O)[C@H]1O)CCCCCC(=O)N(CCCCCC(=O)N(C)CCCCSC1O[C@H](CO)[C@H](O)[C@H](O)[C@H]1O)CCCCCC(=O)N(C)CCCCSC1O[C@H](CO)[C@H](O)[C@H](O)[C@H]1O)C(=O)CCCCCNC(=O)CCCC[C@@H]1SC[C@@H]2NC(=O)N[C@@H]21 (stereo partly drawn) [(galactosyl)8 -LC-biotin]	–	–	–	–	–	–	–	–	–	–	–	–	–	–	–	–	–	comparable to galactosylated-HSA-biotin
